According to PubChem BioAssay AID180 (DTP/NCI, 2004):
Values joined by “and” are separate entries in the source; they are usually repeats but may differ in a detail not shown here. Identical values can stand only once.

Tested on: BDF1 mice, Adenocarcinoma 755 s.c., tumor weight T/C
Test: NCI In Vivo Anticancer Drug Screen. Data for tumor model Adenocarcinoma 755 (subcutaneous) in B6D2F1 (BDF1) mice
Details: endpoint: mean tumor weight, higher = larger tumour
In short: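 Transplantable tumor implanted; mice dosed with compound or vehicle; survival or tumor size recorded; ratio of treated to vehicle control reported.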

[1] = dose: 30.0 mg/kg/injection, schedule: Q01DX011 (ip), vehicle: carboxymethylcellulose (CMC)
[2] = dose: 60.0 mg/kg/injection, schedule: Q01DX011 (ip), vehicle: carboxymethylcellulose (CMC)
[3] = dose: 62.0 mg/kg/injection, schedule: Q01DX011 (ip), vehicle: methylcellulose (MC)
[4] = dose: 125.0 mg/kg/injection, schedule: Q01DX011 (ip), vehicle: methylcellulose (MC)
[5] = dose: 80.0 mg/kg/injection, schedule: Q01DX011 (ip), vehicle: carboxymethylcellulose (CMC)

C1CN1c1nc(N2CC2)nc(N2CC2)n1
T/C (dose: 0.03 mg/kg/injection, schedule: Q01DX011 (ip), vehicle: carboxymethylcellulose (CMC)): 90 % of control | T/C (dose: 0.05 mg/kg/injection, schedule: Q01DX011 (ip), vehicle: carboxymethylcellulose (CMC)): 80 % of control | T/C (dose: 0.1 mg/kg/injection, schedule: Q01DX011 (ip), vehicle: carboxymethylcellulose (CMC)): 36 % of control | T/C (dose: 0.1 mg/kg/injection, schedule: Q02DX011 (ip), vehicle: carboxymethylcellulose (CMC)): 65 % of control | T/C (dose: 0.2 mg/kg/injection, schedule: Q02DX011 (ip), vehicle: carboxymethylcellulose (CMC)): 49 % of control | T/C (dose: 0.5 mg/kg/injection, schedule: Q01DX011 (ip), vehicle: saline): 8 % of control | T/C (dose: 49.0 micrograms/kg/injection, schedule: Q01DX011 (ip), vehicle: carboxymethylcellulose (CMC)): 86 % of control | T/C (dose: 67.0 micrograms/kg/injection, schedule: Q01DX011 (ip), vehicle: carboxymethylcellulose (CMC)): 213 % of control | T/C (dose: 98.0 micrograms/kg/injection, schedule: Q01DX011 (ip), vehicle: carboxymethylcellulose (CMC)): 88 % of control | T/C (dose: 134.0 micrograms/kg/injection, schedule: Q01DX011 (ip), vehicle: carboxymethylcellulose (CMC)): 101 % of control | T/C (dose: 150.0 micrograms/kg/injection, schedule: Q01DX011 (ip), vehicle: saline): 63 % of control | T/C (dose: 260.0 micrograms/kg/injection, schedule: Q01DX011 (ip), vehicle: carboxymethylcellulose (CMC)): 57 % of control and 77 % of control | T/C (dose: 268.0 micrograms/kg/injection, schedule: Q01DX011 (ip), vehicle: carboxymethylcellulose (CMC)): 82 % of control | T/C (dose: 300.0 micrograms/kg/injection, schedule: Q01DX011 (ip), vehicle: saline): 33 % of control | T/C (dose: 536.0 micrograms/kg/injection, schedule: Q01DX011 (ip), vehicle: carboxymethylcellulose (CMC)): 18 % of control | T/C (dose: 600.0 micrograms/kg/injection, schedule: Q01DX011 (ip), vehicle: saline): 7 % of control

CS(C)=O
T/C (dose: 1000.0 mg/kg/injection, schedule: Q01DX011 (ip), vehicle: other): 71 % of control | T/C (dose: 1000.0 mg/kg/injection, schedule: Q#A X022 (ip), vehicle: other): 25 % of control | T/C (dose: 1500.0 mg/kg/injection, schedule: Q01DX011 (ip), vehicle: other): 115 % of control | T/C (dose: 1500.0 mg/kg/injection, schedule: Q#A X022 (ip), vehicle: other): 67 % of control

Nc1ncnc2c1nc(Br)n2C1CC(O)C(CO)O1 (stereo not drawn)
T/C [1]: 89 % of control | T/C [2]: 89 % of control | T/C (dose: 120.0 mg/kg/injection, schedule: Q01DX011 (ip), vehicle: carboxymethylcellulose (CMC)): 75 % of control | T/C (dose: 240.0 mg/kg/injection, schedule: Q01DX011 (ip), vehicle: carboxymethylcellulose (CMC)): 123 % of control

CCCCNc1nc(N)nc2c1nnn2CCCC
T/C [3]: 54 % of control | T/C [4]: 78 % of control | T/C (dose: 250.0 mg/kg/injection, schedule: Q01DX011 (ip), vehicle: methylcellulose (MC)): 45 % of control

CCCCN(C)/N=N/c1nc[nH]c1C(N)=O
T/C [5]: 4 % of control

CC1(C)OC2C(CO)OC(n3cnc4c(SCc5ccccc5)ncnc43)C2O1 (stereo not drawn)
T/C (dose: 31.0 mg/kg/injection, schedule: Q01DX011 (ip), vehicle: methylcellulose (MC)): 79 % of control | T/C [3]: 59 % of control | T/C [4]: 50 % of control

OCCn1cnc2c(SCc3ccccc3Cl)ncnc21
T/C (dose: 15.0 mg/kg/injection, schedule: Q01DX011 (ip), vehicle: carboxymethylcellulose (CMC)): 77 % of control | T/C (dose: 25.0 mg/kg/injection, schedule: Q01DX011 (ip), vehicle: methylcellulose (MC)): 97 % of control | T/C [1]: 49 % of control | T/C [2]: 22 % of control | T/C (dose: 150.0 mg/kg/injection, schedule: Q01DX011 (ip), vehicle: methylcellulose (MC)): 5 % of control

NC(=O)c1ccccc1Nc1ccc([N+](=O)[O-])cc1[N+](=O)[O-]
T/C (dose: 34.0 mg/kg/injection, schedule: Q01DX011 (ip), vehicle: carboxymethylcellulose (CMC)): 102 % of control | T/C (dose: 100.0 mg/kg/injection, schedule: Q01DX011 (ip), vehicle: carboxymethylcellulose (CMC)): 115 % of control

c1cc[nH]c1
T/C (dose: 40.0 mg/kg/injection, schedule: Q01DX011 (ip), vehicle: carboxymethylcellulose (CMC)): 101 % of control | T/C [5]: 68 % of control | T/C (dose: 160.0 mg/kg/injection, schedule: Q01DX011 (ip), vehicle: carboxymethylcellulose (CMC)): 113 % of control

CC(=O)Nc1c(Cl)c(Cl)c2c(c1Cl)Cc1cc(F)ccc1-2
T/C (dose: 125.0 mg/kg/injection, schedule: Q01DX011 (ip), vehicle: carboxymethylcellulose (CMC)): 91 % of control | T/C (dose: 125.0 mg/kg/injection, schedule: Q01DX011 (ip), vehicle: saline): 29 % of control | T/C (dose: 250.0 mg/kg/injection, schedule: Q01DX011 (ip), vehicle: carboxymethylcellulose (CMC)): 41 % of control | T/C (dose: 250.0 mg/kg/injection, schedule: Q01DX011 (ip), vehicle: saline): 29 % of control | T/C (dose: 500.0 mg/kg/injection, schedule: Q01DX011 (ip), vehicle: carboxymethylcellulose (CMC)): 42 % of control | T/C (dose: 500.0 mg/kg/injection, schedule: Q01DX011 (ip), vehicle: saline): 17 % of control | T/C (dose: 1000.0 mg/kg/injection, schedule: Q01DX011 (ip), vehicle: carboxymethylcellulose (CMC)): 25 % of control | T/C (dose: 1000.0 mg/kg/injection, schedule: Q01DX011 (ip), vehicle: saline): 14 % of control

C[C@]12C[C@H](O)[C@H]3[C@@H](CCC4=CC(=O)CC[C@@]43C)[C@@H]1CC[C@@H]2C(=O)CF
T/C (dose: 25.0 mg/kg/injection, schedule: Q01DX011 (sc), vehicle: steriod suspending solution): 121 % of control | T/C (dose: 200.0 mg/kg/injection, schedule: Q01DX011 (sc), vehicle: steriod suspending solution): 79 % of control | T/C (dose: 400.0 mg/kg/injection, schedule: Q01DX011 (sc), vehicle: steriod suspending solution): 79 % of control

CCCCNc1cc(=O)[nH]c(N)n1
T/C (dose: 55.0 mg/kg/injection, schedule: Q01DX011 (ip), vehicle: methylcellulose (MC)): 53 % of control

Cn1cnc(N)c(NC=O)c1=O
T/C (dose: 25.0 mg/kg/injection, schedule: Q01DX011 (ip), vehicle: carboxymethylcellulose (CMC)): 98 % of control | T/C (dose: 75.0 mg/kg/injection, schedule: Q01DX011 (ip), vehicle: carboxymethylcellulose (CMC)): 113 % of control | T/C (dose: 225.0 mg/kg/injection, schedule: Q01DX011 (ip), vehicle: carboxymethylcellulose (CMC)): 115 % of control

CCCCN(C)N=Nc1ccc(S(N)(=O)=O)cc1
T/C (dose: 4.0 mg/kg/injection, schedule: Q01DX011 (ip), vehicle: carboxymethylcellulose (CMC)): 91 % of control | T/C (dose: 8.0 mg/kg/injection, schedule: Q01DX011 (ip), vehicle: carboxymethylcellulose (CMC)): 90 % of control and 77 % of control | T/C (dose: 31.0 mg/kg/injection, schedule: Q01DX011 (ip), vehicle: carboxymethylcellulose (CMC)): 33 % of control | T/C (dose: 32.0 mg/kg/injection, schedule: Q01DX011 (ip), vehicle: carboxymethylcellulose (CMC)): 108 % of control and 84 % of control | T/C (dose: 62.0 mg/kg/injection, schedule: Q01DX011 (ip), vehicle: carboxymethylcellulose (CMC)): 42 % of control | T/C (dose: 93.0 mg/kg/injection, schedule: Q01DX011 (ip), vehicle: carboxymethylcellulose (CMC)): 55 % of control

O=C(CCBr)Nc1ccc(NC(=O)CCBr)cc1
T/C (dose: 56.0 mg/kg/injection, schedule: Q01DX011 (ip), vehicle: methylcellulose (MC)): 113 % of control | T/C (dose: 113.0 mg/kg/injection, schedule: Q01DX011 (ip), vehicle: methylcellulose (MC)): 108 % of control | T/C (dose: 225.0 mg/kg/injection, schedule: Q01DX011 (ip), vehicle: methylcellulose (MC)): 100 % of control | T/C (dose: 450.0 mg/kg/injection, schedule: Q01DX011 (ip), vehicle: methylcellulose (MC)): 117 % of control

CCCCOP(=O)(N1CC1C)N1CC1C (stereo not drawn)
T/C (dose: 2.0 mg/kg/injection, schedule: Q01DX011 (ip), vehicle: saline): 92 % of control and 96 % of control and 114 % of control | T/C (dose: 32.0 mg/kg/injection, schedule: Q01DX011 (ip), vehicle: saline): 25 % of control
